Results published in the supplement of paper PMC10307832.

What was measured:
Experiment in all cases: relative viability (nuclei count vs DMSO), 5 days (fraction); higher = more cells survive
SGI-1776 + Olaparib = compound: CN1CCC(CNc2ccc3ncc(-c4cccc(OC(F)(F)F)c4)n3n2)CC1 [SGI-1776] + O=C(c1cc(Cc2n[nH]c(=O)c3ccccc23)ccc1F)N1CCN(C(=O)C2CC2)CC1 [Olaparib] (partner 8 µM)
Summary of the method: (§1)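 Lung cancer cell lines, seeded in 1536-well plates, were treated the following day by pin tool with a single drug or with five library-drug doses (not always all listed) in √10 steps on top of a fixed anchor-drug dose. Cells were fixed and nuclei stained in one step after 5 days, and nuclei were counted. Relative viability is the nuclei count for treated wells divided by that for vehicle wells, reported as medians of duplicate plates.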

Entinostat + Decitabine = compound: Nc1ccccc1NC(=O)c1ccc(CNC(=O)OCc2cccnc2)cc1 [Entinostat] + Nc1ncn([C@H]2C[C@H](O)[C@@H](CO)O2)c(=O)n1 [Decitabine] (partner 2 µM)
Summary of the method: as §1

Entinostat + Lapatinib = compound: Nc1ccccc1NC(=O)c1ccc(CNC(=O)OCc2cccnc2)cc1 [Entinostat] + CS(=O)(=O)CCNCc1ccc(-c2ccc3ncnc(Nc4ccc(OCc5cccc(F)c5)c(Cl)c4)c3c2)o1 [Lapatinib] (partner 2 µM)
Summary of the method: as §1

SGI-1776 + Luminespib = compound: CN1CCC(CNc2ccc3ncc(-c4cccc(OC(F)(F)F)c4)n3n2)CC1 [SGI-1776] + CCNC(=O)c1noc(-c2cc(C(C)C)c(O)cc2O)c1-c1ccc(CN2CCOCC2)cc1 [Luminespib] (partner 0.01 µM)
Summary of the method: as §1

Row | Cell Line | relative viability (SGI-1776 + Olaparib; first compound 0.08 µM) | relative viability (SGI-1776 + Olaparib; first compound 0.8 µM) | relative viability (SGI-1776 + Olaparib; first compound 2.53 µM) | relative viability (SGI-1776 + Olaparib; first compound 8 µM) | relative viability (Entinostat + Decitabine; first compound 0.02 µM) | relative viability (Entinostat + Decitabine; first compound 0.06325 µM) | relative viability (Entinostat + Decitabine; first compound 0.2 µM) | relative viability (Entinostat + Decitabine; first compound 0.6325 µM) | relative viability (Entinostat + Decitabine; first compound 2 µM) | relative viability (Entinostat + Lapatinib; first compound 0.02 µM) | relative viability (Entinostat + Lapatinib; first compound 0.06325 µM) | relative viability (Entinostat + Lapatinib; first compound 0.2 µM) | relative viability (Entinostat + Lapatinib; first compound 0.6325 µM) | relative viability (Entinostat + Lapatinib; first compound 2 µM) | relative viability (SGI-1776 + Luminespib; first compound 0.08 µM) | relative viability (SGI-1776 + Luminespib; first compound 0.8 µM) | relative viability (SGI-1776 + Luminespib; first compound 2.53 µM) | relative viability (SGI-1776 + Luminespib; first compound 8 µM)
1 | NCI-H1793 | 0.87 | 0.99 | 0.864 | 0.8 | 0.519 | 0.56 | 0.383 | 0.256 | 0.253 | 0.695 | 1.07 | 0.617 | 0.393 | 0.328 | 0.217 | 0.163 | 0.286 | 0.161
2 | NCI-H1915 | 0.256 | 0.265 | 0.248 | 0.23 | 0.276 | 0.246 | 0.258 | 0.229 | 0.197 | 0.985 | 1.05 | 1.01 | 0.633 | 0.315 | 0.778 | 0.843 | 0.75 | 0.684
3 | NCI-H1944 | 0.411 | 0.406 | 0.422 | 0.354 | 0.391 | 0.372 | 0.258 | 0.25 | 0.245 | 0.851 | 0.768 | 0.787 | 0.354 | 0.271 | 0.871 | 0.67 | 0.669 | 0.618
4 | NCI-H1975 | 0.877 | 0.791 | 0.73 | 0.638 | 0.358 | 0.35 | 0.301 | 0.169 | 0.155 | 0.812 | 0.801 | 0.669 | 0.274 | 0.189 | 0.302 | 0.137 | 0.208 | 0.106
5 | NCI-H1993 | 0.989 | 0.943 | 1.01 | 0.955 | 0.537 | 0.54 | 0.559 | 0.645 | 0.466 | 0.749 | 0.911 | 0.867 | 0.728 | 0.69 | 0.882 | 0.964 | 0.676 | 0.652
6 | NCI-H2009 | 0.714 | 0.769 | 0.688 | 0.623 | 0.433 | 0.385 | 0.4 | 0.409 | 0.323 | 0.954 | 0.984 | 0.827 | 0.685 | 0.396 | 1.04 | 1.03 | 0.977 | 0.955
7 | NCI-H2023 | 0.499 | 0.516 | 0.51 | 0.347 | 0.199 | 0.14 | 0.157 | 0.0887 | 0.0748 | 0.633 | 0.585 | 0.261 | 0.129 | 0.0771 | 0.746 | 0.77 | 0.693 | 0.363
8 | NCI-H2085 | 0.758 | 0.797 | 0.926 | 0.794 | 0.552 | 0.545 | 0.51 | 0.483 | 0.405 | 0.748 | 0.825 | 0.744 | 0.545 | 0.443 | 0.481 | 0.44 | 0.513 | 0.333
9 | NCI-H2087 | 0.601 | 0.637 | 0.727 | 0.521 | 0.283 | 0.302 | 0.186 | 0.133 | 0.106 | 1.03 | 0.792 | 0.861 | 0.536 | 0.54 | 0.138 | 0.212 | 0.183 | 0.17
10 | NCI-H2126 | 0.99 | 0.936 | 0.911 | 0.91 | 0.557 | 0.53 | 0.57 | 0.418 | 0.346 | 0.794 | 0.78 | 0.759 | 0.421 | 0.385 | 0.933 | 0.972 | 0.947 | 0.774
11 | NCI-H2170 | 0.638 | 0.686 | 0.651 | 0.614 | 0.465 | 0.468 | 0.376 | 0.281 | 0.236 | 0.289 | 0.3 | 0.304 | 0.244 | 0.216 | 0.723 | 0.669 | 0.668 | 0.419
12 | NCI-H2347 | 0.606 | 0.674 | 0.632 | 0.614 | 0.611 | 0.585 | 0.494 | 0.471 | 0.363 | 1.05 | 0.983 | 0.784 | 0.502 | 0.369 | 0.344 | 0.558 | 0.324 | 0.539
13 | NCI-H2405 | 0.828 | 0.879 | 0.789 | 0.712 | 0.693 | 0.784 | 0.686 | 0.501 | 0.511 | 1.16 | 1.42 | 1.08 | 1.04 | 0.625 | 0.647 | 0.632 | 0.538 | 0.452
14 | NCI-H3122 | 0.688 | 0.697 | 0.62 | 0.647 | 0.439 | 0.47 | 0.477 | 0.339 | 0.243 | 1.02 | 1.07 | 1.09 | 0.917 | 0.893 | 0.089 | 0.096 | 0.0857 | 0.0863
15 | PC-3 [JPC-3] | 1.13 | 1.14 | 1.11 | 0.797 | 0.778 | 0.852 | 0.731 | 0.573 | 0.55 | 0.448 | 0.451 | 0.397 | 0.348 | 0.302 | 0.739 | 0.573 | 0.741 | 0.628
16 | PC-14 | 0.285 | 0.367 | 0.305 | 0.114 | 0.248 | 0.184 | 0.189 | 0.109 | 0.0779 | 0.293 | 0.29 | 0.146 | 0.151 | 0.105 | 0.154 | 0.138 | 0.126 | 0.129
17 | RERF-LC-KJ | 0.866 | 0.92 | 0.802 | 0.586 | 0.712 | 0.685 | 0.663 | 0.369 | 0.285 | 0.775 | 0.794 | 0.816 | 0.476 | 0.321 | 1.23 | 1.17 | 0.904 | 0.688
18 | SK-LU-1 | 0.514 | 0.5 | 0.452 | 0.5 | 0.643 | 0.805 | 0.638 | 0.473 | 0.418 | 0.825 | 0.775 | 0.55 | 0.573 | 0.516 | 0.217 | 0.192 | 0.19 | 0.167
